Values belong to the compound of their own block, whether it stands above or below them.
Assays:
[1] = target: T1, MAP kinase-activated protein kinase 5 (Homo sapiens) (UniProt Q8IW41); assay: Selectivity interaction (Kinase panel (Invitrogen)) EUB0000639a MAPKAPK5; settings: at 200 nM
T1 sequence (whole entry): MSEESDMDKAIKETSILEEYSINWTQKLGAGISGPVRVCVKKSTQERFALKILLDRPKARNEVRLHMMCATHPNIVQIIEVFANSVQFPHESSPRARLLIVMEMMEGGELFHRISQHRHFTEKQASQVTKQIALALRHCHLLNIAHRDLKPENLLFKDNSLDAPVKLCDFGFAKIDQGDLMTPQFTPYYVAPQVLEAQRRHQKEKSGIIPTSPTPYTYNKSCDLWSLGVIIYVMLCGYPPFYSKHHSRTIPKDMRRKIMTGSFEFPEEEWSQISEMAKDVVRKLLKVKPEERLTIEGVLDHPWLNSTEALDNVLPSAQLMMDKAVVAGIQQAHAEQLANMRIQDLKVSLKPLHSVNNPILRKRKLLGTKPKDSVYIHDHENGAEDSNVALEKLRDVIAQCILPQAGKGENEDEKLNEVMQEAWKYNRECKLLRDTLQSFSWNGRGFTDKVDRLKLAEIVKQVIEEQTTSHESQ

[2] = target: Serine/threonine-protein kinase Nek7 (Homo sapiens) (UniProt Q8TDX7); assay: Selectivity interaction (ActivX KiNativ screen (kinase selectivity in THP-1 cell lysates)) EUB0000639a NEK7; assay type: subcellular; settings: lysate
[3] = target: T2, Inhibitor of nuclear factor kappa-B kinase subunit beta (Homo sapiens) (UniProt O14920); assay: Selectivity interaction (Kinase panel (Invitrogen)) EUB0000639a IKBKB; settings: at 200 nM
T2 sequence (whole entry): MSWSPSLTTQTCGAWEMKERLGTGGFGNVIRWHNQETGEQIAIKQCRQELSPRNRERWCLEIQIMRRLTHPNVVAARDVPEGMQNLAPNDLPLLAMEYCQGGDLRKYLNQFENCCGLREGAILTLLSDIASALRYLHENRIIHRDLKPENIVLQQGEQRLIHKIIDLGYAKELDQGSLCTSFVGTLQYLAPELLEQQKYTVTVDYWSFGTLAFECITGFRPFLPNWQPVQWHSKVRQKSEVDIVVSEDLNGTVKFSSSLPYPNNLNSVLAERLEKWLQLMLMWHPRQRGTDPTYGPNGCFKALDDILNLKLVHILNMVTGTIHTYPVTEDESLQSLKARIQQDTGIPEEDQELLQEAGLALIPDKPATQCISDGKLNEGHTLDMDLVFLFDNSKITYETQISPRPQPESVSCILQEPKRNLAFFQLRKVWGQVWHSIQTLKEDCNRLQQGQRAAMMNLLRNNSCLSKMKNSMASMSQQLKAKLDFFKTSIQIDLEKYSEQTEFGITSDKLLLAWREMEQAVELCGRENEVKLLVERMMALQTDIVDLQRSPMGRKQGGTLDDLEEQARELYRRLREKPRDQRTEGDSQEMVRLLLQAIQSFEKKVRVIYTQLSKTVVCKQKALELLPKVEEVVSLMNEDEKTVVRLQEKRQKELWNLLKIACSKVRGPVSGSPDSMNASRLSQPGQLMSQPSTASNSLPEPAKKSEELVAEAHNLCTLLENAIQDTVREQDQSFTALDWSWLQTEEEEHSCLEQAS

[4] = target: Receptor-interacting serine/threonine-protein kinase 2 (Homo sapiens, UniProt O43353); assay: Selectivity interaction (NanoBRET assay (HEK293T cells)) EUB0000229b RIPK2; assay type: cell-based, HEK-293T
[5] = target: T3, Serine/threonine-protein kinase NLK (Homo sapiens) (UniProt Q9UBE8); assay: Selectivity interaction (KinomeScan (DiscoverX)) EUB0000229b NLK; settings: at 10 µM
T3 sequence (whole entry): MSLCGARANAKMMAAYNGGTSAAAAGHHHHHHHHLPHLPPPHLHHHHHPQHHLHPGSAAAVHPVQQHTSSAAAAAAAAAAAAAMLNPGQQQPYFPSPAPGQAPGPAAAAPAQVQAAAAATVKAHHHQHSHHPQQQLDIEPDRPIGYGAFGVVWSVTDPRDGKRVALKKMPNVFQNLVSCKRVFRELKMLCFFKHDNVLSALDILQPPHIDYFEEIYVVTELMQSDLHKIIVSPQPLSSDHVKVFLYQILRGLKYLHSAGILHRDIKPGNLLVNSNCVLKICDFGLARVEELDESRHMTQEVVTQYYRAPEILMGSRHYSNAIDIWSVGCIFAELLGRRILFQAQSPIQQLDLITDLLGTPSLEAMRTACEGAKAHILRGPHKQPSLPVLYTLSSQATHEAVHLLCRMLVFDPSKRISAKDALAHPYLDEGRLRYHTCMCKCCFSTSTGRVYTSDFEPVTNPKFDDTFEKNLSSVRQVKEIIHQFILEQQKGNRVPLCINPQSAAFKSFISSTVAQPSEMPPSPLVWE

[6] = target: T4, Inhibitor of nuclear factor kappa-B kinase subunit alpha (Homo sapiens) (UniProt O15111); assay: Selectivity interaction (KinomeScan (DiscoverX)) EUB0000092b CHUK; settings: at 10 µM
T4 sequence (whole entry): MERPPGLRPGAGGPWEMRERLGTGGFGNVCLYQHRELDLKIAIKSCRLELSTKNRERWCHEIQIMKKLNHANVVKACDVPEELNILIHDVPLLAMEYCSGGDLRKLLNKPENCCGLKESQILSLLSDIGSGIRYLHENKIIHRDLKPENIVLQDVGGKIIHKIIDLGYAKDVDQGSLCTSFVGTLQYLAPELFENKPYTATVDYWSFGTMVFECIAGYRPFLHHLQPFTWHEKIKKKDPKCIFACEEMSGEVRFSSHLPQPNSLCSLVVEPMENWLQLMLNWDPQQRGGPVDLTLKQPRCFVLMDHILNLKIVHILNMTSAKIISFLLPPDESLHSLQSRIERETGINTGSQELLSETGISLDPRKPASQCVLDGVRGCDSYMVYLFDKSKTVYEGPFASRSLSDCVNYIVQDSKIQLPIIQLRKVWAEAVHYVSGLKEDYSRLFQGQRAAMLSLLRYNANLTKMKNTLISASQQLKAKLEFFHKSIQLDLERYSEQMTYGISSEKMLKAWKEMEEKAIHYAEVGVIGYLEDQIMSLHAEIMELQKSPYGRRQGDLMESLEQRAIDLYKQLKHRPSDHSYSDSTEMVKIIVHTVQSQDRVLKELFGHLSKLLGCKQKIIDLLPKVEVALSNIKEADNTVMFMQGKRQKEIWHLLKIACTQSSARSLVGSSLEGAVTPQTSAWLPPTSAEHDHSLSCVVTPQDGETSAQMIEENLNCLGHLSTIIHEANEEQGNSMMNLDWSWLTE

[7] = target: Fibroblast growth factor receptor 1 (Homo sapiens, UniProt P11362); settings: at 10 µM
[8] = target: Serine/threonine-protein kinase Chk2 (Homo sapiens) (UniProt O96017); assay: Selectivity interaction (ActivX KiNativ screen (ex vivo kinase selectivity in human PBMCs)) EUB0001619a CHEK2; assay type: cell-based; settings: PBMC, at 1 µM
Sequence of Serine/threonine-protein kinase Chk2 (Homo sapiens) (O96017 whole entry): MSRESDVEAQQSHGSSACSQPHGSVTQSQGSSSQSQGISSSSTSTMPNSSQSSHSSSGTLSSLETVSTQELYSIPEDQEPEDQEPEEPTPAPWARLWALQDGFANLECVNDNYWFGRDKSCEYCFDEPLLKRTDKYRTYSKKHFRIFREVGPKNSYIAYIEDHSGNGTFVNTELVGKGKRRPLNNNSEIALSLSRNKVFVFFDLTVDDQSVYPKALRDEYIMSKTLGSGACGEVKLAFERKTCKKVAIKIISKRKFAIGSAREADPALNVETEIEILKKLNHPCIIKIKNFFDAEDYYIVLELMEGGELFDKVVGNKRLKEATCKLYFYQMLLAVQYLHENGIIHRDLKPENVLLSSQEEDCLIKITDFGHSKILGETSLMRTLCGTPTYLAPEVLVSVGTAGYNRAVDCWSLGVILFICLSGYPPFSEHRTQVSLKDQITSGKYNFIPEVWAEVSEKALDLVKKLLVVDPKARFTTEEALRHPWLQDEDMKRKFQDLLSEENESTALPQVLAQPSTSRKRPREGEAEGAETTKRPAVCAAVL

Sequence of Serine/threonine-protein kinase Nek7 (Homo sapiens) (Q8TDX7 whole entry, looked up): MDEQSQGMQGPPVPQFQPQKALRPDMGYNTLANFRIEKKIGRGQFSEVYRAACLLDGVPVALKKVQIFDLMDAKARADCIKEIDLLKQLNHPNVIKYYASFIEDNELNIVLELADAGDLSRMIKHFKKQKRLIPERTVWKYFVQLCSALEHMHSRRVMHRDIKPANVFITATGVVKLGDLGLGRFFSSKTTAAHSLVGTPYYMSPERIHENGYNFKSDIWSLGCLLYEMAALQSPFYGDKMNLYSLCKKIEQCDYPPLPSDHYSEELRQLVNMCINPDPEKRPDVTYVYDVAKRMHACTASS
Sequence of Receptor-interacting serine/threonine-protein kinase 2 (O43353 whole entry): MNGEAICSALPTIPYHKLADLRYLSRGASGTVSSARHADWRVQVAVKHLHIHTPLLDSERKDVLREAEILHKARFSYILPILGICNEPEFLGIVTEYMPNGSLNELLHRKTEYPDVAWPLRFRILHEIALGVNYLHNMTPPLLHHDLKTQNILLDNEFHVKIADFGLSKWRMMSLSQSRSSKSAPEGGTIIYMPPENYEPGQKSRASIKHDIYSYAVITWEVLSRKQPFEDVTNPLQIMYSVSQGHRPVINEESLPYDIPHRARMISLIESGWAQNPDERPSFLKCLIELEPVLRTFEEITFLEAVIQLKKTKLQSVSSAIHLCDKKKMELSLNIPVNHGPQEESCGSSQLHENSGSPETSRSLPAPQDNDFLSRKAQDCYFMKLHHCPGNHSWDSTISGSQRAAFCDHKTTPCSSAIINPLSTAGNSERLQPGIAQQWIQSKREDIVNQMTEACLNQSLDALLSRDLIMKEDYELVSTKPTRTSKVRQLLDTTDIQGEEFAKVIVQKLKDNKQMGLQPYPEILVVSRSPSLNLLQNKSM
Sequence of Fibroblast growth factor receptor 1 (P11362 22-822 limits assumed): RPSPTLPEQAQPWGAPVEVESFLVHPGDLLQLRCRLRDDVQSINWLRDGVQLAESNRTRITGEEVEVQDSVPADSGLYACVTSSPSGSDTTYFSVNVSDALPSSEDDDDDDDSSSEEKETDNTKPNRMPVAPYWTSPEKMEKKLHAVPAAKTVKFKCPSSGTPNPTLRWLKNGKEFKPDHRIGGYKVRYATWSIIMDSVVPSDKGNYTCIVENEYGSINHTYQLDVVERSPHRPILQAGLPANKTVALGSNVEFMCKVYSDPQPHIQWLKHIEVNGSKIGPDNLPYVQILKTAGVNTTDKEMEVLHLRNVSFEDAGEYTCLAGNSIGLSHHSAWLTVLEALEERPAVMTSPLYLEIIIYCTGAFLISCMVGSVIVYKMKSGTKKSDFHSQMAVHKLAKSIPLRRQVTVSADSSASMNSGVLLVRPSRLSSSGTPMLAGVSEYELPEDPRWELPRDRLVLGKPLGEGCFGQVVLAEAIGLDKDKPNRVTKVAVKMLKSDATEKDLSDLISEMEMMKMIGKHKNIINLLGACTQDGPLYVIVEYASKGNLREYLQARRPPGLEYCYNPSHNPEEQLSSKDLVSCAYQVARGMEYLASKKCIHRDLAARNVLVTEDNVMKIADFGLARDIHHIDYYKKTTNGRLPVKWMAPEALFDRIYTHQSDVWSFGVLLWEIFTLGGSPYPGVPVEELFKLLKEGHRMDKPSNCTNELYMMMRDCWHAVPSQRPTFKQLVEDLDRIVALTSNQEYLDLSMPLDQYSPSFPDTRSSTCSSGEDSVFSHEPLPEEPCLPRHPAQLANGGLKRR

- % of inhibition [1]: 8.71%
- % of inhibition ([2]; at 0.01 µM): -4%
- % of inhibition ([2]; at 0.04 µM): -1.1%
- % of inhibition ([2]; at 0.2 µM): -1.6%
- % of inhibition ([2]; at 1 µM): 10.8%
- % of inhibition ([2]; at 5 µM): -20%
- % of inhibition [3]: 4.3%
Structure (SMILES): CC[C@@H]1[C@H](F)C(=O)N[C@@H]1COc1nccc2cc(C(N)=O)c(OC)cc12 [ZIMLOVISERTIB]

Structure (SMILES): COc1cc(N(C)c2ccnc3ccc(C(F)(F)F)cc23)cc(OC)c1OC
- IC50 [4]: > 10 µM
- % binding [5]: 64%

Structure (SMILES): CCC(=O)N1CCN(c2ccc(-n3c(=O)ccc4cnc5ccc(-c6cnc7ccccc7c6)cc5c43)cc2C(F)(F)F)CC1
- % of control [6]: 41%

Structure (SMILES): Cc1cc([C@@H](C)Nc2ccccc2C(=O)O)c2nc(N3CCOCC3)cc(=O)n2c1 [AZD-6482]
- % of control [7]: 89%

Structure (SMILES): N#Cc1cccc(-c2c[nH]c3ncnc(N4CCOCC4)c23)c1
- % of inhibition [8]: 2%

From ChEMBL document CHEMBL5465560, “Selectivity Literature for EUbOPEN Chemogenomic Library” (2024)
